# According to US6831080B2, “Cinnamide derivatives as KCNQ potassium channel modulators” (Bristol-Myers Squibb Company, priority 2001, dated 2004):
# Where a name gives a salt, the structure may show the parent alone.
# Experiments:
# [1] = system: chlordiazepoxide + amphetamine induced hyperactivity, Sprague Dawley rats; assay: Mania/bipolar model: chlordiazepoxide + d-amphetamine induced hyperactivity, locomotor activity; format: in vivo, rat
# Method: Subjects: Female Sprague Dawley rats (Hilltop Lab Animals, Scottdale, Pa.), weighing 150-200 g at the beginning of the experiment, were used in the experiment described in this example. Animals were individually housed in standard shoebox cages and maintained on a 12:12 h light-dark cycle (lights on at 0600). All animals were allowed food and water ad libitum throughout the experimental procedure. Prior to arrival to the testing facility, the rats were anesthetized with vaporized Isoflurane and catheters were surgically implanted into the jugular vein. The catheters were made of silastic medical grade tubing (15 cm long, 0.02″ internal diameter, 0.037″ external diameter), fastened with sutures to muscle near the jugular vein and at the nape of the neck, then sealed with smooth pieces of monofilament that were secured at the nape of the neck.
# Lithium chloride (LiCl), chlordiazepoxide hydrochloride (CDP) and d-amphetamine sulfate (Amph) were obtained from Sigma Chemical Company (St. Louis, Mo.). LiCl was dissolved in a vehicle of isotonic saline and injected intraperitoneally (i.p.) at a dose of 2 mEq/kg. CDP and Amph were dissolved in a vehicle of sterile water (Phoenix Scientific, Inc., St. Joseph, Mo.) and injected subcutaneously (s.c.) at a dose of 12.5 mg/kg and 1.18 mg/kg, respectively. Combination treatment of CDP and Amph represented the s.c. injection of a 1:1 mixture of both compounds at the above referenced doses. Compound of Example 1 was dissolved in dimethylsulfoxide (DMSO) and brought to volume with propylene glycol (PG) such that the final vehicle represented a 4% DMSO/96% PG solution. […]
# Thirty minutes after final s.c. dosing with either CDP+Amph, Amph alone or vehicle, rats were placed in locomotor activity testing apparatus. […] Data were analyzed using a priori planned analyses of variance where an effect was considered significant if p<0.05.
# mKCNQ2 channels = target: T1, mKCNQ2 channels (Mus musculus, UniProt Q9Z351); assay: Whole-cell patch-clamp, HEK 293 stable cell line expressing mKCNQ2 channels; format: cell-based; details: HEK 293 mKCNQ2, Hill fit
# T1 construct: expressed in transfected cells
# T1 sequence (Q9Z351 whole entry): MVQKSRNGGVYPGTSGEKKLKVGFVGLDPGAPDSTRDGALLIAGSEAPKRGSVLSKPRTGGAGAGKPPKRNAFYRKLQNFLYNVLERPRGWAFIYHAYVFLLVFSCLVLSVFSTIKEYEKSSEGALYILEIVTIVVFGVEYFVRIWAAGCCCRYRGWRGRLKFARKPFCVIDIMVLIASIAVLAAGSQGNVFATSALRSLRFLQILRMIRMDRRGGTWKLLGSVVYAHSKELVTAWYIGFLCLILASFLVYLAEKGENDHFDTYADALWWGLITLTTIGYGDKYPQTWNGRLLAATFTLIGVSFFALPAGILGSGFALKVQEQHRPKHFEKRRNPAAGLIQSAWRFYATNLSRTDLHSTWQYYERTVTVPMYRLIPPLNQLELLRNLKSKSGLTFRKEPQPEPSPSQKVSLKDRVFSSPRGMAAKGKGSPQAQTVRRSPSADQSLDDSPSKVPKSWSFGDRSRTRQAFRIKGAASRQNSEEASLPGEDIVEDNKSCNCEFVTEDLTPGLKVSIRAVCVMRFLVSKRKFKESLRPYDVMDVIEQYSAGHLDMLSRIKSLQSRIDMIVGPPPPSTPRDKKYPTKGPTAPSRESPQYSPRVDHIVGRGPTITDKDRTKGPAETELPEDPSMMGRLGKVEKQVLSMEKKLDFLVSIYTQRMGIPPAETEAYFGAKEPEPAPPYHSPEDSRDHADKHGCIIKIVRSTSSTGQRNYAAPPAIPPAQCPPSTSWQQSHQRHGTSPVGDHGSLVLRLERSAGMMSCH
# Method: Whole-cell patch-clamp recordings were made from an HEK 293 stable cell line expressing mKCNQ2 channels, maintained in culture for 1-2 days. Patch pipettes had initial resistances of 2.5-4 MΩ. Currents were recorded with an EPC-9 amplifier (HEKA, Lambrecht, Germany) controlled with software (Pulse, HEKA) run on a standard lab PC. Series resistance compensation was used during current recording, and set at 80%. The series resistance (R) and cell capacitance (C) were determined electronically by subtracting the capacitive currents at the onset and offset of a 5 mV voltage step. The cancellation of whole-cell capacitance transients was virtually complete in all cells. Analog current signals were low-pass filtered at 2.9 kHz using a four-pole Bessel filter −3 dB) and stored on a local network server computer at a sampling rate of […]. All recordings were performed at room temperature (20-22° C.). The pipette solution contained (mM): KCl, 150; CaCl2, 2.5; EGTA, 5; MgCl2, 1; HEPES, 10; pH to 7.3 with KOH, and Osmolality of 290-300 mOsm. The extracellular solution contained (mM): NaCl, 140; KCl, 2.5; CaCl2, 2.5; MgCl2, 1; glucose, 10; HEPES, 10; pH to 7.3 with NaOH, and Osmolality of 305-310 mOsm
# Concentration response data were generated by measuring the difference in the steady-state amplitude of current in the presence of compound at the end of a 600 ms voltage-clamp step from a holding potential of −80 mV. The concentration-response data were fitted with Hill-type equations: […]
# where I is the steady-state current at a given concentration of agonist [A]; and Imax, EC50 and nH are parameters estimated from the curve fit. In some cases the concentration-response data were fitted with equations consisting of the sum of two Hill-type components. Current-voltage (I/V) relationships for agonist-evoked currents were obtained by performing 600 ms voltage steps (−110 mV to +40 mV) in the absence and presence of agonist.
# [2] = system: cortical spreading depression (KCl application), Long-Evans rats; assay: In vivo electrophysiology: number of cortical spreading depressions produced by KCl application; details: 1 mg/kg, i.v., 15 min prior to KCl; rat
# Excerpt: Male Long-Evans rats (300-450 g) were used in the present studies (Harlan). Rats were anesthetized with urethane anesthesia (1.2 g/kg i.p.) and placed in a stereotaxic frame. Under anesthesia a Silastic catheter was placed in the jugular vein of the rats. The skull was exposed using a scalpel. A small hole (approximately 2 mm by 3 mm) was drilled in to the skull rostral to the lambdoid suture using a microdrill and steel burr. The dura was disrupted and a drop of mineral oil was placed in this hole to prevent dehydration of the underlying cortex. Ultimately this hole was used for the application of crystalline KCl (described below).
# Two additional holes were place in the skull unilaterally at 4 and 8 mm rostral to the application hole. Silver wire electrodes were placed in these latter holes and secured to the skull using acrylic cement. A similar silver wire electrode was sutured to the nuchal muscle to serve as a reference electrode. Electrical DC recordings were obtained using a standard differential amplifier (Warner, DP-304) and commercially available data acquisition equipment (Cambridge Electronic Design, 1401 A-D converter and Spike2 software).
# All experimental procedures were conducted while the rats were maintained under anesthesia. Rats were injected with test compound, valproic acid or vehicle (100% PEG-400) 15 min prior to the application of crystalline KCl to the application site described above. All injections were given via the jugular vein at a volume of ≦0.5 ml/kg. Only one treatment was tested per animal. The effect of valproic acid was also determined in this study due to the fact that Depakote™ (divalproex sodium) is one of only three drugs currently indicated for the prophylatic treatment of migraine headache. Valproic acid (30-200 mg/kg i.v.) was obtained from Sigma Chemical Company and was dissolved in a vehicle of isotonic saline.
# KCl was applied to the application site for 10 min and was then removed using a saline soaked cotton swab. Mineral oil was subsequently reapplied to the application site. Typically, this application produced a long-lasting series of spreading depressions. The number of spreading depressions produced by this KCl application was the primary measure used to access the effectiveness of compounds in this assay.
# Data were analyzed using analyses of variance followed by the Dunnett post-hoc test for pairwise comparisons, when appropriate. A difference was considered significant when p≦0.05.
# The effect of representative compounds of Formula I on spreading depression is expressed as the percent reduction from vehicle control and is listed in Table 3.
# [3] = system: nerve injury-induced tactile allodynia (L5/L6 ligation), Sprague Dawley rats; assay: Chung model of neuropathic pain (Chung surgery and von Frey test); format: in vivo, rat; details: 3 mg/kg, i.v., von Frey thresholds over 90 min
# Method: To test agents for activity against peripheral mononeuropathy nerve injury-induced tactile allodynia, male Sprague Dawley rats (wt. 120-160 g) were surgically prepared with unilateral tight ligation of spinal nerves L5 and L6 following the method of Kim and Chung (Kim S. H., Chung J. M. (1992) Pain, September;50(3):355-63). After 3-4 weeks recovery, paw withdrawal to light touch was assessed as described by Chaplan et al. (Chaplan S. R., et al., (1994) J. Neurosci Methods, July;53(1):55-63). In brief, rats are placed in a plastic cage with a wire mesh bottom and allowed to acclimate for 15-30 minutes, until cage exploration and grooming stops. The plantar surface of each hind paw is touched with a series of von Frey hairs with varying stiffness requiring a known force to buckle to determine the nociceptive threshold. Adult male Sprague Dawley rats (avg. wt. 340 g) were tested in the present study. After acclimation, baseline von Frey thresholds were assessed for the injured hindpaw at −15 min. All test compounds were delivered at 0 min by the intravenous (i.v.) route in a volume of 0.5-2 ml/kg. The vehicle for test compounds was 100% PEG-400. For gabapentin the vehicle was deionized H2O. Animals were tested in one of the following 4 treatment conditions: (a) PEG400, (b) gabapentin (Neurontin) 100 mg/kg, (c) test compounds 3 mg/kg and (d) test compounds 10 mg/kg. Following drug administration, von Frey thresholds are measured at 15, 30, 60 and 90 min. Data were analyzed by a 2-way repeated measures analysis of variance followed by Dunnett's test (p<0.05). Experimenters were kept blind to the treatment condition of rats they tested.
# Reversal of neuropathic pain behavior may be expressed as a percentage (0-100%) of the maximum possible effect, over and above the vehicle effects. Specifically, drug effects can be described in terms Δ% MPE according to the following equation: [formula]
# AUCdrug=area under the curve for von Frey thresholds of the drug-treated group;
# AUCvehicle=area under the curve for von Frey thresholds in the vehicle group;
# Time=duration of post-drug testing period (90 min); and
# Max=maximum von Frey threshold (15 g).
# For example, a compound which immediately reversed neuropathic pain behavior to normal levels, such that animals only responded to the highest von Frey filament (15 g), and maintained normal levels through out the post-drug testing period (90 min) would be calculated as Δ% MPE=100%.
# [4] = system: streptozoticin-induced tactile allodynia, Sprague Dawley rats; assay: Diabetic model of neuropathic pain (streptozoticin and von Frey test); format: in vivo, rat; details: 10 mg/kg, i.v.; von Frey thresholds over 90 min; STZ diabetic model
# Method: To test agents for activity against systemic polyneuropathy nerve injury-induced tactile allodynia, animals were treated with streptozoticin (STZ) to create a diabetic condition by selective cytotoxic action upon pancreatic β-islet cells that produce insulin following the method of Courteix, et al. (Courteix C., et al., (1993) Pain, April;53(1):81-8). In brief, male Sprague Dawley rats (wt. 200-275 g) received an injection of STZ (75 mg/kg, i.p.) and diabetes was confirmed three weeks after STZ injection by measurement of tail vein blood glucose levels. After 3-4 weeks, paw withdrawal to light touch was assessed as described by Chaplan et al. (Chaplan S. R., et al., (1994) J Neurosci Methods, July;53(1):55-63). In brief, rats are placed in a plastic cage with a wire mesh bottom and allowed to acclimate for 15-30 minutes, until cage exploration and grooming stops. The plantar surface of each hind paw is touched with a series of von Frey hairs with varying stiffness requiring a known force to buckle to determine the nociceptive threshold. Adult male Sprague Dawley rats (avg. wt. 300 g) were tested in the present study. After acclimation, baseline von Frey thresholds were assessed for the injured hindpaw at -15 min. All test compounds were delivered at 0 min by the intravenous (i.v.) route in a volume of 0.5-2 ml/kg. […] Animals were tested in one of the following 4 treatment conditions: […] Following drug administration, von Frey thresholds are measured at 15, 30, 60 and 90 min. Data were analyzed by a 2-way repeated measures analysis of variance followed by Dunnett's test (p<0.05). Experimenters were kept blind to the treatment condition of rats they tested. […] Specifically, drug effects can be described in terms Δ% MPE according to the following equation: {[…] under the curve for von Frey thresholds of the drug-treated group; AUCvehicle=area under the curve for von Frey thresholds in the vehicle group; Time=duration of post-drug testing period (90 min); and Max=maximum von Frey threshold (15 g).
compound,measurement,setting,value
C[C@H](NC(=O)/C=C/c1ccc(F)cc1)c1ccc2ccccc2c1 [Compound of Example 1],Horizontal Activity Counts,"[1]; 5 mg/kg i.v. 45 minutes pre-test, then chlordiazepoxide + d-amphetamine, first 10 minutes of testing","7,859.2 + 661.21 counts"
same,Effect on augmentation of locomotor scores produced by the combination treatment,"[1]; 5 mg/kg i.v. 45 minutes pre-test, F(1,16)=10.4, p=0.005",significantly prevented
"C[C@H](NC(=O)/C=C/c1cc(F)ccc1F)c1cccc(N2CCOCC2)c1 [Example 90, (S)-3-(2,5-Difluoro-phen-yl)-N-[1-(3-morpho-lin-4-yl-phenyl)-eth-yl]-acrylamide]",EC50,mKCNQ2 channels; @ −40 mV,1.2 µM
same,Emax,"mKCNQ2 channels; HEK293, read-out: Imax (%)",523%
same,"% Reduction (number of spreading depressions, from vehicle control)",[2],"37 (1 mg/kg, i.v.) %"
same,AUC (Δ% MPE),[3],"13 (3 mg/kg, i.v.) Δ% MPE"
same,AUC (Δ% MPE),[4],"56 (10 mg/kg, i.v.) Δ% MPE"
"C[C@H](N)Cc1ccccc1 [d-amphetamine, d-amphetamine sulfate, reference compound]",Horizontal Activity Counts,"[1]; rat, in vivo","8,772.3 + 426.02 counts"
